Data on one compound can be found in patent US8389020B1, “Immediate action and long-lasting formulation to control moss and liverwort” (Tara Innovations LLC, priority 2011, dated 2013).

The assay has as its system moss. As to the kind of experiment: Experiment 1: ferrous sulfate/lime mixtures applied to 6″×6″ moss areas in triplicate. It counts as in vivo. As to conditions: in mixture with lime. On the procedure: In order to establish the effective concentration of ferrous sulfate in the formulation, mixtures of ferrous sulfate and lime with a ferrous sulfate concentration between 0 to 60% (w/w) were prepared (Table I) and applied to 6″×6″ area in triplicate. Water was sprayed over the area. The day time high temperature was 40° F. during the experiment and the night temperature decreased to 28° F. In one day, area with 30% or more ferrous sulfate concentration treatment turned black burning all the moss (Table II). The areas with 10% and 20% […] treatment were black in a week. There was no effect of 100% lime on the moss. Thus, a minimum concentration of 10% is suitable for the satisfactory results within a week. When % ferrous sulfate was more than 30%, the moss turned black in one day.

With `O.O.O.O.O.O.O.O=S(=O)([O-])[O-].[Fe+2]` [ferrous sulfate, Ferrous sulfate septahydrate (FeSO4.7H2O)], the “Minimum ferrous sulfate concentration suitable for satisfactory results within a week” value was 10%.
